The record followed here is patent publication US10399924B2, “Deuterium substituted fumarate derivatives” (Biogen MA Inc., priority 2012, dated 2019).

Counter-ions that a name gives are not always drawn. Like-named read-outs stand apart in the source and are kept apart here.

Data set [1] in a line: Oral PK at 100 mg/kg in male SD rats. The conditions noted are these: in vivo, rat, read-out: half-life of MMF (converted). Here is the method: The concentration of the compounds was determined by LC/MS/MS. […] The concentration of D-MMF was determined by LC/MS/MS. […] The concentration of D-MMF was determined by LC/MS/MS.
In the next data set the test system is Nrf2-Keap1 Pathway. As to the kind of experiment: DiscoverRx PathHunter Nrf2-Keap1 nuclear translocation biosensor assay. The conditions noted are these: agonist mode, 6 hours incubation at room temperature; read-out: Nrf2 activation EC50. The data set is classed as cell-based. The text has this: The PathHunter® Nuclear Translocation assay detects translocation of a target protein to, or from, the nucleus. In this system, Prolink™ (PK), a small enzyme fragment, is fused to the protein of interest and Enzyme Acceptor (EA) is localized in the nucleus. Activation of the signaling pathway induces the target protein to either transit into the nucleus, thus forcing complementation of the PK and EA fragments, or out of the nucleus, hindering complementation of the fragments. PathHunter Pathway cell lines were expanded from freezer stocks according to standard procedures. 5000 cells were seeded in Cell Plating Reagent 0 (containing 1% FBS) to a total volume of 20 μL into white walled, 384-well microplates and incubated for the overnight prior to testing. For Agonist determination, cells were incubated with sample to induce response. Dilution of sample stocks was performed to generate 100× sample in DMSO. […] Vehicle concentration was 1%. Assay signal was generated through a single addition of 25 μL (100% v/v) of PathHunter Flash Detection reagent, followed by a one hour incubation at room temperature. Microplates were read following signal generation with a PerkinElmer Envision™ instrument for chemiluminescent signal detection. Compound activity was analyzed using CBIS data analysis suite (ChemInnovation, CA). For agonist mode assays, percentage activity was calculated using the following formula: % Activity=100%×(mean RLU of test sample−mean RLU of vehicle control)/(mean MAX RLU control ligand−mean RLU of vehicle control).

The nature of data set [2]: Oral cassette co-administration PK with DMF in male SD rats (plasma, LC/MS/MS). The conditions noted are these: equivalent oral dose of 50 mg/kg of DMF, same study.
For data set [3], the system named is Nrf2 (ARE-luciferase reporter), DLD-1/ARE-E2. As to the kind of experiment: ARE-luciferase reporter assay of Nrf2 activation, DLD-1/ARE-E2 cells. Conditions: summary for DLD-1 and MCF-7 reporter cell lines. The data set is classed as cell-based, human. Here is the method: Human cancer cell line DLD-1 and breast cancer cell line MCF7 reporter stable cell lines were generated by transfection with a firefly luciferase reporter construct harboring the luciferase cDNA cloned downstream of eight catenated copies of the antioxidant response element ([…] ID NO.:1). See Wang et al. Cancer Res. 2006; 66:10983-94. To measure Nrf2 activation in the ARE-luciferase reporter cell lines, the cells were plated in 96-well plates at 20-50 k cells/well 24 hours prior to stimulation with the test compounds. […] The reporter cells were harvested 24 hours-48 hours after addition of the compounds and lysed for detection of luciferase activity. Luciferase activity in the lysates was monitored using the Bright-Glo Luciferase Assay System of Promega and Tecan Genios Pro plate reader. Luciferase induction in the compound-treated cells was calculated as fold change over the baseline activity detected in control cultures treated with DMSO-containing media.
(In a reporter assay the amount or activity of a reporter protein is the signal.)

Turning to `COC(=O)/C=C/C(=O)O` [MMF, monomethyl fumarate], the half-life (in general, the time needed for the level to fall by half in the phase considered) was 54 min in data set [1] (male, SD, 100 mg/Kg oral dose) and approximately 60 min in data set [1] (oral, 100 mg/Kg, species not stated for this figure). Regarding `[2H]/C(C(=O)O)=C(/[2H])C(=O)O.[2H]/C(C(=O)OC([2H])([2H])[2H])=C(/[2H])C(=O)OC([2H])([2H])[2H]` [Example 8], the EC50 (in general, the concentration giving half of the maximal effect) in the data set on Nrf2-Keap1 Pathway worked out at 7.97 µM. Moreover, the “oral exposure compared to DMF” value in data set [2] is given as “higher oral exposure”.

As for `O=C(O)/C=C/C(=O)O.[2H]C([2H])([2H])OC(=O)/C=C/C(=O)OC([2H])([2H])[2H]` [Example 1, (^2H6)dimethyl Fumaric Acid Ester], the EC50 with Nrf2-Keap1 Pathway is 6.57 µM. Besides, the “activation of ARE-dependent signaling of the luciferase reporter construct” value in data set [3] is reported as “able to activate ARE-dependent signaling”. The “oral exposure compared to DMF” value in data set [2] is reported as “higher oral exposure”. `O=C(O)/C=C/C(=O)O.[2H]C([2H])([2H])OC(=O)/C=C/C(=O)O` [Example 2, (^2H3)methyl Fumaric Acid Ester]: in data set [3], the “activation of ARE-dependent signaling of the luciferase reporter construct” value is given as “able to activate ARE-dependent signaling”. Consider `[2H]/C(C(=O)OC)=C(/[2H])C(=O)OC` [Example 4], for which the EC50 with Nrf2-Keap1 Pathway was 4.78 µM. In addition, the “oral exposure compared to DMF” value in data set [2] is “higher oral exposure”. Regarding `COC(=O)/C=C/C(=O)OC` [DMF, dimethyl fumarate, reference compound], the EC50 in the data set with Nrf2-Keap1 Pathway turned out to be 5.4 µM.
